From ChEMBL document CHEMBL5584333, “Evo312: An Evodiamine Analog and Novel PKCβI Inhibitor with Potent Antitumor Activity in Gemcitabine-Resistant Pancreatic Cancer” (J Med Chem, 2024)
Activity calls are given as the source filed them. The calls are words filed in the database; no cut-off is given here.

Columns and labels:
[1] = target: T1, Protein kinase C beta type (Homo sapiens, UniProt P05771); assay: Binding affinity to PKCbeta1 in human Gemcitabine-resistant PANC-1 cells at 10 uM incubated for 1 hrs by streptavidin-biotin pull down assay; type: cell-based
Target sequence in this assay (P05771 2-671 limits assumed): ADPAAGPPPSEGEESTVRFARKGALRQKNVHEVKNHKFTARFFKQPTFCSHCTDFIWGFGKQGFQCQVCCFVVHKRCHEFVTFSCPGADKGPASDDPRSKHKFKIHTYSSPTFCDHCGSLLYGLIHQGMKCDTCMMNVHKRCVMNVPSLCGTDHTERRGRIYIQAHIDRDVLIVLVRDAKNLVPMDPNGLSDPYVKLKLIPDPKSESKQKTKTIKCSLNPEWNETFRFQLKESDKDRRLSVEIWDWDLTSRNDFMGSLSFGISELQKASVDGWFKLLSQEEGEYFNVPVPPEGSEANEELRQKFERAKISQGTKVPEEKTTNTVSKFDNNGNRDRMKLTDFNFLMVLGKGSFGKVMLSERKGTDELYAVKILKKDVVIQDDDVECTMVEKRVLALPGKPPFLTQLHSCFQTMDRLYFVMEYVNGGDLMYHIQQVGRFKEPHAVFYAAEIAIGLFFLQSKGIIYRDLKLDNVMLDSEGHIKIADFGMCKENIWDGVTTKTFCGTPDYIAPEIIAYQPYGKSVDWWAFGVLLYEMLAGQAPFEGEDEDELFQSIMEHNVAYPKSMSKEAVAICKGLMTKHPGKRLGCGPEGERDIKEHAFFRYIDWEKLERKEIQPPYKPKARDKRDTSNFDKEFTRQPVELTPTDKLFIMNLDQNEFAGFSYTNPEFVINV

PANC-1 [2] = assay: Cytotoxicity against human PANC-1 cells assessed as inhibition of cell growth incubated for 72 hrs by SRB assay; type: functional, cell-based; conditions: PANC-1, 72 h
[3] = Cytotoxicity against human MRC5 cells assessed as inhibition of cell growth incubated for 72 hrs by SRB assay; type: toxicity, cell-based
[4] = Cytotoxicity against HPDE6c7 cells assessed as inhibition of cell growth incubated for 72 hrs by SRB assay; type: toxicity, cell-based; conditions: human
[5] = target: T1, Protein kinase C beta type; assay: Inhibition of recombinant full length N-terminal GST-tagged human PKCbeta1 expressed in baculovirus infected Sf9 insect cells using ERMRPRKRQGSVRRRV as substrate incubated for 60 mins in presence of ATP by ADP-glo reagent based luminometric analysis
[6] = system: Gemcitabine-resistant PANC-1; assay: Cytotoxicity against human Gemcitabine-resistant PANC-1 cells assessed as inhibition of cell growth incubated for 72 hrs by SRB assay; type: functional, cell-based; conditions: Gemcitabine-resistant PANC-1, 72 h
[7] = system: Gemcitabine-resistant PANC-1; assay: Antitumor activity against human Gemcitabine-resistant PANC-1 cells xenografted in male BALB/c nude mouse assessed as reduction in tumor growth at 5 mg/kg, ip administered three times in a week for 20 days; type: functional, organism-based; conditions: time 20.0 day
[8] = Selectivity ratio of IC50 for cytotoxicity against human Gemcitabine-resistant PANC-1 cells assessed as inhibition of cell growth to IC50 for cytotoxicity against human PANC-1 cells assessed as inhibition of cell growth; type: functional
PANC-1 [9] = assay: Antiproliferative activity against human PANC-1 cells transfected with PKCbeta1 siRNA assessed as reduction in cell viability at 1.25 to 40 uM incubated for 72 hrs by MTT assay; type: functional, cell-based; conditions: dose 1.25-40 µM
[10] = system: Gemcitabine-resistant PANC-1; assay: Antitumor activity against human Gemcitabine-resistant PANC-1 cells xenografted in male BALB/c nude mouse assessed as reduction in tumor growth at 10 mg/kg, ip administered three times in a week for 20 days relative to control; type: functional; design: scale not given: the % may be the effect or the level left; conditions: time 20 day
PANC-1 [11] = assay: Antiproliferative activity against human PANC-1 cells transfected with Myc-DDK tagged pCMV6-PKCbeta1 assessed as reduction in cell viability at 1.25 to 40 uM incubated for 72 hrs by MTT assay; type: functional, cell-based; conditions: dose 1.25-40 µM

Compound | IC50 (PANC-1 [2]) [µM] | IC50 at 72 h [3] [µM] | also measured
CC(=O)Oc1ccc2c(c1)c1c(n2Cc2cn(CCNC(=O)CCCC[C@@H]3SC[C@@H]4NC(=O)N[C@@H]43)nn2)C2N(CC1)C(=O)c1ccccc1N2C (some centres not stated) | – | – | Activity [1]: Active
CN1c2ccccc2C(=O)N2CCc3c([nH]c4ccc(Cl)cc34)[C@H]21 | 31.6 | 9.42 | –
COc1cccc2c1C(=O)N1CCc3c([nH]c4ccccc34)[C@H]1N2C | 12.6 | 12.7 | –
CCCN1c2ccccc2C(=O)N2CCc3c([nH]c4ccccc34)[C@H]21 | < 0.4 | < 0.4 | –
COc1ccc2c(c1)N(C)[C@@H]1c3[nH]c4ccccc4c3CCN1C2=O | 31.6 | 3.6 | –
COc1ccc2[nH]c3c(c2c1)CCN1C(=O)c2ccccc2N(C)[C@H]31 | 11.1 | 10.8 | –
CC(=O)Oc1ccc2[nH]c3c(c2c1)CCN1C(=O)c2cc(F)ccc2N(C)[C@H]31 | < 0.4 | < 0.4 | –
O=C1c2ccccc2N(Cc2ccc(C(F)(F)F)cc2)[C@@H]2c3[nH]c4ccccc4c3CCN12 | 31.5 | 50 | –
C#CCOc1ccc2[nH]c3c(c2c1)CCN1C(=O)c2ccccc2N(C)[C@H]31 | 4 | > 50 | –
CN1c2cccc(Cl)c2C(=O)N2CCc3c([nH]c4ccccc34)[C@H]21 | 8.8 | < 0.4 | –
CN1c2ccccc2C(=O)N2CCc3c([nH]c4ccc(OCc5ccccc5)cc34)[C@H]21 | 10.7 | > 50 | –
O=C1c2ccccc2N[C@@H]2c3[nH]c4ccccc4c3CCN12 | > 50 | > 50 | –
Cc1cccc2c1N(C)[C@@H]1c3[nH]c4ccccc4c3CCN1C2=O | < 0.4 | < 0.4 | –
O=C1c2ccccc2N(C(=O)C2CCCCC2)C2c3[nH]c4ccccc4c3CCN12 (single isomer, unassigned) | > 50 | > 50 | –
Cc1ccc2[nH]c3c(c2c1)CCN1C(=O)c2ccccc2N(C)[C@H]31 | 29.2 | > 50 | –
CN1c2cc(Cl)ccc2C(=O)N2CCc3c([nH]c4ccccc34)[C@H]21 | > 50 | > 50 | –
Cc1ccc(CN2c3ccccc3C(=O)N3CCc4c([nH]c5ccccc45)[C@H]32)cc1 | 11.3 | > 50 | –
Cc1ccc2c(c1)C(=O)N1CCc3c([nH]c4ccccc34)[C@H]1N2C | 2.02 | 7.36 | –
CN1c2ccccc2C(=O)N2CCc3c(n(C(=O)c4ccccc4)c4ccccc34)[C@H]21 | > 50 | > 50 | –
CN1c2ccccc2C(=O)N2CCc3c([nH]c4ccc([N+](=O)[O-])cc34)[C@H]21 | 4.45 | > 50 | –
CN1c2ccc(Cl)cc2C(=O)N2CCc3c([nH]c4ccccc34)[C@H]21 | 1.32 | 1.03 | –
CN1c2ccccc2C(=O)N2CCc3c([nH]c4ccc(OC(=O)c5ccccc5)cc34)[C@H]21 | 0.75 | > 50 | IC50 at 72 h [4]: 0.14 µM; inhibition [5]: inactive; IC50 [6]: 0.13 µM

Compound | IC50 (PANC-1 [2]) [µM] | IC50 at 72 h [3] [µM] | also measured
Nc1ccn([C@@H]2O[C@H](CO)[C@@H](O)C2(F)F)c(=O)n1 [GEMCITABINE] | 1.25 | – | Activity [7]: inactive; Ratio IC50 [8]: 51.61; IC50 at 72 h [4]: 0.04 µM; Activity (PANC-1 [9]): Active; Activity [10]: 72.15%; IC50 [6]: 64.5 µM; Activity (PANC-1 [11]): inactive
CN1c2ccccc2C(=O)N2CCc3c(n(Cc4ccc(Cl)cc4)c4ccccc34)[C@H]21 | 44 | > 50 | –
COc1ccc2c(c1)C(=O)N1CCc3c([nH]c4ccccc34)[C@H]1N2C | 1.05 | 3.33 | –
CN1c2ccc(F)cc2C(=O)N2CCc3c([nH]c4ccccc34)[C@H]21 | < 0.4 | < 0.4 | –
CCCn1c2c(c3ccccc31)CCN1C(=O)c3ccccc3N(C)[C@H]21 | 38.4 | > 50 | –
CN1c2ccccc2C(=O)N2CCc3c([nH]c4ccc(O)cc34)[C@H]21 | ≤ 0.05 | > 50 | IC50 at 72 h [4]: 0.17 µM; inhibition [5]: inactive; IC50 [6]: 0.25 µM
COc1ccc(Cn2c3c(c4ccccc42)CCN2C(=O)c4ccccc4N(C)[C@H]32)cc1 | 47.2 | > 50 | –
CN1c2ccccc2C(=O)N2CCc3c([nH]c4c([N+](=O)[O-])cc([N+](=O)[O-])cc34)[C@H]21 | 0.93 | > 50 | IC50 at 72 h [4]: 0.08 µM; inhibition [5]: inactive; IC50 [6]: 1.31 µM
CN1c2ccccc2C(=O)N2CCc3c(n(C)c4ccccc34)[C@H]21 | > 50 | > 50 | –
CCCCCCn1c2c(c3ccccc31)CCN1C(=O)c3ccccc3N(C)[C@H]21 | 13.7 | 37.6 | –
CC(=O)Oc1ccc2[nH]c3c(c2c1)CCN1C(=O)c2cccc(C)c2N(C)[C@H]31 | < 0.4 | < 0.4 | –
CN1c2ccccc2C(=O)N2CCc3c(n(Cc4ccccc4)c4ccccc34)[C@H]21 | 6.88 | 33.7 | –
Cn1cc(C2=C(c3cn(C4CCN(Cc5ccccn5)CC4)c4ccccc34)C(=O)NC2=O)c2ccccc21 [ENZASTAURIN] | 6.59 | – | IC50 at 72 h [4]: 1.33 µM; IC50 [6]: 2.12 µM
CN1c2ccc(Br)cc2C(=O)N2CCc3c([nH]c4ccccc34)[C@H]21 | 2.25 | 3.06 | –
C=CCOc1ccc2[nH]c3c(c2c1)CCN1C(=O)c2ccccc2N(C)[C@H]31 | 6.7 | > 50 | –
O=C1c2ccccc2N(Cc2ccccc2)[C@@H]2c3[nH]c4ccccc4c3CCN12 | > 50 | > 50 | –
CN1c2ccccc2C(=O)N2CCc3c([nH]c4ccc(F)cc34)[C@H]21 | 9.32 | 4.71 | –
COc1cc([C@@H]2c3cc4c(cc3[C@@H](O[C@@H]3O[C@@H]5CO[C@@H](C)O[C@H]5[C@H](O)[C@H]3O)[C@H]3COC(=O)[C@H]23)OCO4)cc(OC)c1O [ETOPOSIDE] | 18.3 | > 20 | –
CCCOc1ccc2[nH]c3c(c2c1)CCN1C(=O)c2ccccc2N(C)[C@H]31 | 19 | > 50 | –
Cc1ccc(Cn2c3c(c4ccccc42)CCN2C(=O)c4ccccc4N(C)[C@H]32)cc1 | > 50 | > 50 | –
CN1c2ccccc2C(=O)N2CCc3c([nH]c4ccccc34)[C@H]21 | 6.59 | > 50 | IC50 [5]: 0.151 µM
